Results: patent publication US20190290759A1, “COMBINATION OF HDAC INHIBITOR AND ANTI-PD-L1 ANTIBODY FOR TREATMENT OF OVARIAN CANCER” (Syndax Pharmaceuticals, Inc., priority 2015, published 2019)

Legend:
[1] = system: PD-L1 on DU 145 carcinoma cells; test: Cell-surface PD-L1 expression by flow cytometry, DU 145; type: cell-based, human; conditions: DU 145 (prostate), vorinostat 3 μM 5 h daily x4 days or entinostat 500 nM 72 h; for PD-L1 % Positive: DMSO controls 76.3 / 81.4; for PD-L1 MFI: DMSO controls 200 / 226
[2] = system: MICA/B on DU 145 carcinoma cells; test: Cell-surface MIC-A/B expression by flow cytometry, DU 145; type: cell-based, human; conditions: DU 145 (prostate); vorinostat 3 μM 5 h daily x4 days or entinostat 500 nM 72 h; DMSO controls 42.9 / 58.9
[3] = system: HLA-ABC on DU 145 carcinoma cells; test: Cell-surface HLA-ABC expression by flow cytometry, DU 145; type: cell-based, human; conditions: DU 145 (prostate), vorinostat 3 μM 5 h daily x4 days or entinostat 500 nM 72 h; for HLA-ABC % Positive: DMSO controls 100 / 100; for HLA-ABC MFI: DMSO controls 200 / 226
[4] = system: PD-L1 on PC-3 carcinoma cells; test: Cell-surface PD-L1 expression by flow cytometry, PC-3; type: cell-based, human; conditions: PC-3 (prostate), vorinostat 3 μM 5 h daily x4 days or entinostat 500 nM 72 h; for PD-L1 % Positive: DMSO controls 74.1 / 55.8; for PD-L1 MFI: DMSO controls 207 / 146
[5] = system: MICA/B on PC-3 carcinoma cells; test: Cell-surface MIC-A/B expression by flow cytometry, PC-3; type: cell-based, human; conditions: PC-3 (prostate); vorinostat 3 μM 5 h daily x4 days or entinostat 500 nM 72 h; DMSO controls 33.2 / 43.7
[6] = system: HLA-ABC on PC-3 carcinoma cells; test: Cell-surface HLA-ABC expression by flow cytometry, PC-3; type: cell-based, human; conditions: PC-3 (prostate), vorinostat 3 μM 5 h daily x4 days or entinostat 500 nM 72 h; for HLA-ABC % Positive: DMSO controls 99.8 / 99.9; for HLA-ABC MFI: DMSO controls 699 / 801
[7] = system: PD-L1 on NCI-H460 carcinoma cells; test: Cell-surface PD-L1 expression by flow cytometry, NCI-H460; type: cell-based, human; conditions: NCI-H460 (lung), vorinostat 3 μM 5 h daily x4 days or entinostat 500 nM 72 h; for PD-L1 % Positive: DMSO controls 68.0 / 89.5; for PD-L1 MFI: DMSO controls 199 / 492
[8] = system: MICA/B on NCI-H460 carcinoma cells; test: Cell-surface MIC-A/B expression by flow cytometry, NCI-H460; type: cell-based, human; conditions: NCI-H460 (lung); vorinostat 3 μM 5 h daily x4 days or entinostat 500 nM 72 h; DMSO controls 4.4 / 20.3
[9] = system: HLA-ABC on NCI-H460 carcinoma cells; test: Cell-surface HLA-ABC expression by flow cytometry, NCI-H460; type: cell-based, human; conditions: NCI-H460 (lung), vorinostat 3 μM 5 h daily x4 days or entinostat 500 nM 72 h; for HLA-ABC % Positive: DMSO controls 86.6 / 99.2; for HLA-ABC MFI: DMSO controls 371 / 822
[10] = system: MICA/B on NCI-H441 carcinoma cells; test: Cell-surface MIC-A/B expression by flow cytometry, NCI-H441; type: cell-based, human; conditions: NCI-H441 (lung); vorinostat 3 μM 5 h daily x4 days or entinostat 500 nM 72 h; DMSO controls 23.5 / 16.7
[11] = system: HLA-ABC on NCI-H441 carcinoma cells; test: Cell-surface HLA-ABC expression by flow cytometry, NCI-H441; type: cell-based, human; conditions: NCI-H441 (lung), vorinostat 3 μM 5 h daily x4 days or entinostat 500 nM 72 h; for HLA-ABC % Positive: DMSO controls 99.9 / 99.9; for HLA-ABC MFI: DMSO controls 1182 / 1232
[12] = system: PD-L1 on AsPC-1 carcinoma cells; test: Cell-surface PD-L1 expression by flow cytometry, AsPC-1; type: cell-based, human; conditions: AsPC-1 (pancreas), vorinostat 3 μM 5 h daily x4 days or entinostat 500 nM 72 h; for PD-L1 % Positive: DMSO controls 1.4 / 1.9; for PD-L1 MFI: DMSO controls 87.5 / 91.4
[13] = system: MICA/B on AsPC-1 carcinoma cells; test: Cell-surface MIC-A/B expression by flow cytometry, AsPC-1; type: cell-based, human; conditions: AsPC-1 (pancreas); vorinostat 3 μM 5 h daily x4 days or entinostat 500 nM 72 h; DMSO controls 1.9 / 1.4
[14] = system: HLA-ABC on AsPC-1 carcinoma cells; test: Cell-surface HLA-ABC expression by flow cytometry, AsPC-1; type: cell-based, human; conditions: AsPC-1 (pancreas), vorinostat 3 μM 5 h daily x4 days or entinostat 500 nM 72 h; for HLA-ABC % Positive: DMSO controls 98.5 / 99.1; for HLA-ABC MFI: DMSO controls 625 / 670
[15] = system: human lung and prostate carcinoma cells (DU 145, PC-3, NCI-H460, NCI-H441); test: Avelumab-mediated ADCC, 4 h 111In release assay with NK effectors; type: cell-based; conditions: cells pre-exposed to vorinostat 3 μM (5 h daily x4 days) or entinostat 500 nM (72 h) vs DMSO; avelumab 2 ng/mL; NK effectors E:T=30:1
Description: (§1) NK lysis was performed in the presence of avelumab or isotype control (2 ng/mL).
(§2) Results are presented as mean±S.E.M. from 3 replicate wells, and are representative of 2-4 independent experiments. […] For CD16 blocking, NK cells were pretreated for 2 h with anti-CD16 blocking antibody prior to being used as effectors. Results are presented as mean±S.E.M. from 3 replicate wells, and are representative of 2-4 independent experiments.

[16] = system: PD-L1 in lung and prostate carcinoma xenografts (NCI-H460, PC-3, DU 145); test: Human xenografts, PD-L1 immunofluorescence; type: in vivo, nu/nu mice; conditions: vorinostat 150 mg/kg p.o. 4 daily doses, excised 24 h after last dose; entinostat 20 mg/kg p.o. single dose 72 h before excision; vs DMSO
Description: Female nu/nu mice were implanted with NCI-H460 (lung) or PC-3 (prostate) carcinoma cells. […] Frozen specimens were examined for cell-surface expression of PD-L1 by immunofluorescence using antihuman PD-L1 (clone SP142) and goat anti-rabbit AF594, and counterstained with DAPI-containing mounting medium.
Tumors were excised 24 h after the last dose. […] Frozen sections were examined for cell-surface expression of human PD-L1 by immunofluorescence. Confocal images are shown at 20× magnification and are representative of 3 animals/treatment. Relative PD-L1 expression levels were calculated using ImageJ software by normalizing the intensity values to their respective DMSO treated controls.

[17] = in vivo; cited from earlier work
histone acetylation = conditions: following the administration of entinostat; cited from earlier work
[18] = system: host immune suppressor cells; conditions: preclinical models; cited from earlier work
[19] = system: PD-L1 on NCI-H441 carcinoma cells; test: Cell-surface PD-L1 expression by flow cytometry, NCI-H441; conditions: NCI-H441 (lung); vorinostat 3 μM 5 h daily x4 days or entinostat 500 nM 72 h; DMSO controls 958 / 1031
[20] = system: NCI-H460 lung carcinoma cells; test: Avelumab-mediated NK lysis with CD16 blocking; type: cell-based, human; conditions: NK cells pretreated 2 h with anti-CD16 blocking antibody 12 μg/mL; targets exposed to vorinostat or DMSO; avelumab 2 ng/mL
Description: as §1
NK cells were pretreated for 2 h with anti-CD16 blocking antibody (12 μg/mL) prior to being used as effectors.
as §2

[21] = system: human carcinoma cell lines; conditions: cited from earlier work
[22] = system: whole PBMCs or dendritic cells isolated from PBMCs; conditions: cited from earlier work
in vitro = conditions: human, PC-3 prostate carcinoma cells

MIC-A/B % Positive [2]	MIC-A/B % Positive [5]	MIC-A/B % Positive [8]	MIC-A/B % Positive [10]	Molecule	PD-L1 % Positive [1]	PD-L1 MFI [1]	HLA-ABC % Positive [3]	HLA-ABC MFI [3]	PD-L1 % Positive [4]	PD-L1 MFI [4]	HLA-ABC % Positive [6]	HLA-ABC MFI [6]	PD-L1 % Positive [7]	PD-L1 MFI [7]	HLA-ABC % Positive [9]	HLA-ABC MFI [9]	HLA-ABC % Positive [11]	HLA-ABC MFI [11]	PD-L1 % Positive [12]	PD-L1 MFI [12]	also measured
94.3%	91.5%	69.8%	46.2%	Nc1ccccc1NC(=O)c1ccc(CNC(=O)OCc2cccnc2)cc1 [Entinostat, N-(2-aminophenyl)-4-[N-(pyridine-3-yl)methoxycarbonylamino-methyl]-benzamide]	99.5%	705	100%	705	86.4%	240	100%	1144	90.2%	507	94.3%	547	99.9%	1375	9.9%	126	MIC-A/B % Positive [13]: 6.5%; HLA-ABC % Positive [14]: 99.0%; HLA-ABC MFI [14]: 126; Sensitivity of carcinoma cells to ADCC mediated by avelumab (NK-cell lysis) [15]: significantly increased sensitivity; PD-L1 expression in vivo in xenografts (immunofluorescence) [16]: enhance PD-L1 expression; half-life [17]: about 100 hours; persistence of changes in histone acetylation (histone acetylation): persist for several weeks; effect on host immune suppressor cells [18]: reduce the number of, and inhibit the function of, host immune suppressor cells; PD-L1 MFI [19]: 1027
–	–	–	–	avelumab: fully human anti-PD-L1 IgG1 antibody	–	–	–	–	–	–	–	–	–	–	–	–	–	–	–	–	Avelumab-mediated lysis of carcinoma cells after CD16 neutralization [20]: decreased by CD16 neutralization; human carcinoma cell lines in which ADCC was induced ([21]; PBMCs as effectors): 8 out of 18; cell lines with augmented lysis after IFN-γ pretreatment ([21]; tumor cell lines pretreated with IFN-γ): 4 out of 10; lysis of PBMCs or dendritic cells in NK-mediated ADCC assays [22]: Little or no lysis
93.9%	58.1%	70.6%	21.1%	O=C(CCCCCCC(=O)Nc1ccccc1)NO [Vorinostat]	96.0%	354	100%	354	83.3%	251	99.7%	816	86.9%	278	97.1%	608	99.9%	1284	1.4%	90.4	MIC-A/B % Positive [13]: 0.8%; HLA-ABC % Positive [14]: 99.2%; HLA-ABC MFI [14]: 806; PD-L1 expression in vivo in xenografts (immunofluorescence) [16]: enhance PD-L1 expression; viability (in vitro): 99%; PD-L1 MFI [19]: 1053
